Experimental data as given in patent US12187709B2 (Genentech, Inc., priority 2021, dated 2025).

Legend:
[1] = biological target: c-Cbl (residues 47-435) (Homo sapiens (Human), UniProt P22681); assay: c-Cbl SPR assay; format: binding; details: 20° C.
Outline: (§1)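 SPR, multi-cycle, 6-pt 2-fold series, blanks flanking for double referencing; capture 1300-1500 RU; contact 60 s at 40 μl/min; dissoc. 120-1200 s (~4-5 half-lives). 1:1 fit. Chaser variant: single cycle, 5 conc., top 500 nM, 120 s contact, 450 s dissociation.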

[2] = biological target: c-Cbl (Homo sapiens (Human), UniProt P22681); assay: C-Cbl LCK Ub TR-FRET assay (C-cbl Lck HTRF); format: biochemical
Sequence of c-Cbl (P22681 47-435): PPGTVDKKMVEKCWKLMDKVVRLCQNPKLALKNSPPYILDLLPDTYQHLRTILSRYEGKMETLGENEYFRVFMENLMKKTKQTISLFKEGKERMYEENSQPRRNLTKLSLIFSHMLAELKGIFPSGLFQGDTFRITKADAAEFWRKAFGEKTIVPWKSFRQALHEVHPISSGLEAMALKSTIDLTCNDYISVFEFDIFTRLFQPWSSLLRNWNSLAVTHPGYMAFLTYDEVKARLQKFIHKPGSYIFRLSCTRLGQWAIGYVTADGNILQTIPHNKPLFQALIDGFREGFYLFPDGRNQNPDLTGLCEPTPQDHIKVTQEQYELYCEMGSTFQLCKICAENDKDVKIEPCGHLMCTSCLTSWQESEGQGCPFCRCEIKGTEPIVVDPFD
Outline: (§2)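 After the ubiquitination reaction, detection mixture was added and plates incubated 20 min at room temperature before reading. IC50 values were calculated with wells lacking LCK as the low control and DMSO as the high control.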

[3] = biological target: Cbl-b (Homo sapiens (Human), UniProt Q13191); assay: Cbl-b LCK Ub TR-FRET assay (Cbl-b Lck HTRF); format: biochemical; details: for IC50: Cbl-b LCK Ub TR-FRET; for (fold-selectivity) Cbl-b and C-Cbl Selectivity / fold-selectivity (Cbl-b over C-cbl): ratio C-cbl Lck HTRF IC50 / Cbl-b Lck HTRF IC50
Sequence of Cbl-b (Q13191 40-426): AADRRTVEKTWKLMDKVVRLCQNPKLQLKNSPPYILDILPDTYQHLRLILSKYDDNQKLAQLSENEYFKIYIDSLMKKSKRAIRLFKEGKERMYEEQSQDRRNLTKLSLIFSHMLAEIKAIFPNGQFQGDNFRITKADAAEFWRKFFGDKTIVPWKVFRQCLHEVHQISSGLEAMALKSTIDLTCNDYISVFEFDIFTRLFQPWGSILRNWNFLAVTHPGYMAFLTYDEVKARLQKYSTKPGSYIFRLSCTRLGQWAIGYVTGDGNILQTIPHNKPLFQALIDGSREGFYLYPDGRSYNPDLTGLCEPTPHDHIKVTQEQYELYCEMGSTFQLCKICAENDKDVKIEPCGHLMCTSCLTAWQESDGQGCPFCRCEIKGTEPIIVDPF
Outline: as §2

[4] = biological target: Human Cbl-b (residues 40-426) (Homo sapiens (Human), UniProt Q13191); assay: Cbl-b SPR assay; format: binding; details: for Fold of selectivity: C-cbl SPR Kd vs Cbl-b SPR Kd; for Kd: SPR, 20° C.
Sequence of Human Cbl-b (residues 40-426) (Q13191 40-426): as above
Outline: as §1

Sequence of c-Cbl (residues 47-435) (P22681 47-435): as the sequence (P22681 47-435) above

SMILES	Kd [1] [nM]	IC50 [2] [nM]	IC50 ([3]; Example 121) [nM]	(fold-selectivity) Cbl-b and C-Cbl Selectivity [3] [x]	Fold of selectivity [4] [×]	Kd [4] [nM]	IC50 [3] [nM]	fold-selectivity (Cbl-b over C-cbl) [3]
CO[C@H]1C[C@](c2cccc(N3Cc4c(cc(CNCCOC(F)F)cc4C(F)(F)F)C3=O)c2)(c2nncn2C)C1 [Compound 491, 6-(((2-(difluoromethoxy)ethyl)amino)methyl)-2-(3-((1r,3r)-3-methoxy-1-(4-methyl-4H-1,2,4-triazol-3-yl)cyclobutyl)phenyl)-4-(trifluoromethyl)isoindolin-1-one]	48	36	8.4	4.3	17	2.9		
Cn1cnnc1[C@@H](c1cccc(N2Cc3c(cc(CNC4(C)CCC4)cc3C(F)(F)F)C2=O)c1)[C@H]1C[C@H](C#N)C1 (single isomer, unassigned) [Compound 139]	1000	1300			4.6	220	350	3.6x
CCO[C@H]1C[C@](c2cccc(N3Cc4c(cc(CNC5(C)CCC5)cc4C(F)(F)F)C3=O)c2)(c2nncn2C)C1 [Compound 179, 2-(3-((1r,3r)-3-ethoxy-1-(4-methyl-4H-1,2,4-triazol-3-yl)cyclobutyl)phenyl)-6-(((1-methylcyclobutyl)amino)methyl)-4-(trifluoromethyl)isoindolin-1-one]	58	110			13	4.6	30	3.4x
CO[C@H]1C[C@](c2cc(NC3CCCC3)nc(N3Cc4c(cc(CNC5(C)CCC5)cc4C(F)(F)F)C3=O)c2)(c2nncn2C)C1 [Compound 9, 2-(6-(cyclopentylamino)-4-((1r,3r)-3-methoxy-1-(4-methyl-4H-1,2,4-triazol-3-yl)cyclobutyl)pyridin-2-yl)-6-(((1-methylcyclobutyl)amino)methyl)-4-(trifluoromethyl)isoindolin-1-one]	220	118			20	11	11	8.4x
CO[C@H]1C[C@](c2cccc(N3Cc4c(cc(CN5CC6(CC6)C5)cc4C(F)(F)F)C3=O)c2)(c2nncn2C)C1 [Compound 423, 6-(5-azaspiro[2.3]hexan-5-ylmethyl)-2-(3-((1r,3r)-3-methoxy-1-(4-methyl-4H-1,2,4-triazol-3-yl)cyclobutyl)phenyl)-4-(trifluoromethyl)isoindolin-1-one]	840	500	100	5.0	8.7	96		
CC[C@](F)(c1cccc(N2Cc3c(cc(CNC4(C)CCC4)cc3C(F)(F)F)C2=O)c1)c1nncn1C (single isomer, unassigned) [Compound 393]	540	460			3.5	150	190	2.4x
Cn1cnnc1C(F)(c1cccc(N2Cc3c(cc(CNC4(C)CCC4)cc3C(F)(F)F)C2=O)c1)C1COC1 (single isomer, unassigned) [Compound 150]	28	13			8.5	2.9	9.1	1.4x
CC(=O)C1CC([C@@H](c2cccc(N3Cc4c(cc(CNC5(C)CCC5)cc4C(F)(F)F)C3=O)c2)c2nncn2C)C1 (single isomer, unassigned) [Compound 383]	20	24			7.7	2.6	19	1.3x
CC[C@H]1C[C@@](c2cccc(N3Cc4c(Cl)cc(CNC5(C)CCC5)cc4C3=O)c2)(c2nncn2C)C1 [Compound 374, 4-chloro-2-(3-((1r,3s)-3-ethyl-1-(4-methyl-4H-1,2,4-triazol-3-yl)cyclobutyl)phenyl)-6-(((1-methylcyclobutyl)amino)methyl)isoindolin-1-one]	10	14			11	0.95	6.6	2.0x
CCc1cc(N2Cc3c(cc(CNC4(C)CCC4)cc3C(F)(F)F)C2=O)cc([C@]2(c3nncn3C)C[C@H](OC)C2)c1 [Compound 236, 2-(3-ethyl-5-((1r,3r)-3-methoxy-1-(4-methyl-4H-1,2,4-triazol-3-yl)cyclobutyl)phenyl)-6-(((1-methylcyclobutyl)amino)methyl)-4-(trifluoromethyl)isoindolin-1-one]	47	65			2.5	19	38	1.7x
CC(C)[C@H]1CN(C)CCN1Cc1cc2c(c(C(F)(F)F)c1)CN(c1cccc([C@]3(c4nncn4C)C[C@@H](C#N)C3)c1)C2=O (single isomer, unassigned) [Compound 64]	81	70			5.1	16	24	(2.9x)
CO[C@H]1C[C@](c2cccc(N3Cc4c(cc(CNCC5(F)CC5)cc4C(F)(F)F)C3=O)c2)(c2nncn2C)C1 [Compound 486, 6-((((1-fluorocyclopropyl)-methyl)amino)methyl)-2-(3-((1r,3r)-3-methoxy-1-(4-methyl-4H-1,2,4-triazol-3-yl)cyclobutyl)phenyl)-4-(trifluoromethyl)isoindolin-1-one]	98	110	18	6.0	11	8.2		
CO[C@H]1C[C@](c2cccc(N3Cc4c(cc([C@H](C)NC5(C)CCC5)cc4C(F)(F)F)C3=O)c2)(c2nncn2C)C1 (single isomer, unassigned) [Compound 185]	97	150			29	3.2	23	6.7x
Cn1cnnc1[C@]1(c2cccc(N3Cc4c(cc(CNC5(C)CCC5)cc4C(F)(F)F)C3=O)c2)C[C@](C)(F)C1 [Compound 30, 2-(3-((1s,3s)-3-fluoro-3-methyl-1-(4-methyl-4H-1,2,4-triazol-3-yl)cyclobutyl)phenyl)-6-(((1-methylcyclobutyl)amino)methyl)-4-(trifluoromethyl)isoindolin-1-one]	9.8	27			3.8	2.6	17	(1.6x)
Cn1cnnc1[C@]1(c2cccc(N3Cc4c(cc(CNC5(C)CCC5)cc4C(F)(F)F)C3=O)c2)C[C@@](O)(C(F)F)C1 [Compound 405, 2-(3-((1s,3s)-3-(difluoromethyl)-3-hydroxy-1-(4-methyl-4H-1,2,4-triazol-3-yl)cyclobutyl)phenyl)-6-(((1-methylcyclobutyl)amino)methyl)-4-(trifluoromethyl)isoindolin-1-one]	75	77	15	5.3	7.7	9.4		
COC[C@H]1CC1(c1cccc(N2Cc3c(cc(CNC4(C)CCC4)cc3C(F)(F)F)C2=O)c1)c1nncn1C (single isomer, unassigned) [Compound 167]	5200	6400			5.8	910	1400	4.7x
